Reference: US20130302247A1, “SYNTHESIS OF FLUOROARACHIDONIC ACID AND METHODS OF USE THEREOF” (The United States of America, as represented by the …, priority 2012, published 2013)

Assays:
[1] = Plasma kinetics of FAA during 5-min intravenous infusion in unanesthetized mice; assay type: in vivo, C57BL/6J male mice; settings: 5-minute intravenous infusion; for plasma area under the curve: mice
Protocol: (§1) The plasma and brain kinetics of the purified [^19F]FAA were tested in unanesthetized adult C57BL/6J male mice. The study was conducted following the National Institutes of Health Guidelines for the Care and Use of Laboratory Animals (Publication no. 80-23) and was approved by the Animal Care and Use Committee of the Eunice Kennedy Shriver National Institute of Child Health and Human Development. Male C57BL/6J mice were obtained at the age of 2-3 months. The mice were maintained in an animal facility in which temperature, humidity, and light cycle were regulated with free access to water and a fixed diet (Rodent NIH-07) that contained (as fractional percent of total fatty acids), 30.6% saturated, 22.5% monounsaturated, […], 4.9% α-linolenic, 0.2% AA, 1.6% eicosapentaenoic, and 2.2% docosahexaenoic acid.
At 4-5 months of age, a mouse was anesthetized with […], and polyethylene catheters were inserted into the femoral artery and vein. The mouse was allowed to recover from surgery in an environment maintained at 25° C., with its hindquarters loosely wrapped and taped to a wooden block. During recovery, body temperature was maintained at 37° C. by means of a rectal probe and a heating element (Indicating Temperature Controller; Yellow Springs Instrument). […] Plasma samples were separated by centrifuging at 13,000 rpm for 1 min, and stored at −80° C. until they were analyzed. […]
Total lipids were extracted from plasma (7-10 μl) and from half brain (˜0.2 g) by the method of Folch et al (28). […] Each band was scraped into tubes containing di-17:0 PC for quantifying PL, CE, TG, EtnGpl, ChoGpl, PtdIns and PtdSer lipid fractions, or 17:0 heptadecaenoic acid to quantify brain UFAs. […]

[2] = Incorporation of [19F]FAA into brain lipids of unanesthetized mice (GC/MS, in vivo kinetic infusion model); design: species or system C57BL/6J male mice
Protocol: as §1
At 4-5 months of age, a mouse was anesthetized with […], and polyethylene catheters were inserted into the femoral artery and vein. The mouse was allowed to recover from surgery in an environment maintained at 25° C., with its hindquarters loosely wrapped and taped to a wooden block. During recovery, body temperature was maintained at 37° C. by means of a rectal probe and a heating element (Indicating Temperature Controller; Yellow Springs Instrument). After 3 h of recovery, the unanesthetized mouse was infused intravenously for 5 min with 130 μl HEPES buffer (pH 7.4) containing 50 mg/ml fatty acid-free bovine serum albumin (BSA, Sigma), or 0.1 mg or 0.5 mg 20-fluoroarachidonic acid (20-FAA) dissolved in HEPES-BSA at a rate of 0.0223 (1+e^−0.32t) ml/min (t in seconds), using a computer-controlled variable rate infusion pump (No. 22; Harvard Apparatus). During infusion, timed arterial blood samples (˜20 μl) were collected in polyethylene-heparin lithium fluoride-coated Beckman centrifuge tubes at 0, 0.25, 0.5, 1.0, 1.5, 3.0, and 4.0 min, and 150 μl was collected at 4.9 min. Plasma samples were separated by centrifuging at 13,000 rpm for 1 min, and stored at −80° C. until they were analyzed. At 5 min, the mouse was anesthetized with sodium pentobarbital (50 mg/kg, i.v.) and subjected to head-focused microwave irradiation (5.5 kW, 0.9 s, 75% power output; Cober Electronics) to stop brain fatty acid metabolism (27). The brain was excised, dissected sagittally and stored at −80° C. until analysis.
Total lipids were extracted from plasma (7-10 μl) and from half brain (˜0.2 g) by the method of Folch et al (28). Heptadecanoic acid (17:0) was added as an internal standard to plasma prior to extraction. Total lipid extracts were separated by thin layer chromatography (TLC) on silica gel plates (Silica Gel 60A TLC plates; Whatman) that were pre-washed with chloroform/methanol (2:1 v/v) and activated by heating at 100° C. Neutral lipid subclasses including phospholipids (PLs), unesterified fatty acids (UFAs), triglycerides (TGs) and cholesteryl esters (CEs) were separated using a mixture of heptane:diethyl ether:glacial acetic acid (60:40:3 by volume) (29), and authentic PL, cholesterol, UFA, TG and CE standards were run in separate lanes to identify the bands. Phospholipid classes (EtnGpl, ethanolamine glycerophospholipid; ChoGpl, choline glycerophospholipid; PtdIns, phosphatidylinositol; PtdSer, phosphatidylserine) were separated in chloroform:methanol:H2O:glacial acetic acid (60:50:4:1 by volume) (30) and identified with authentic standards in separate lanes. The plates were sprayed with 0.03% (w/v) 6-p-toluidine-2-naphthalene sulfonic acid (Acros) in 50 mM Tris-HCl buffer (pH 7.4), and the lipid bands were visualized under UV light. Each band was scraped into tubes containing di-17:0 PC for quantifying PL, CE, TG, EtnGpl, ChoGpl, PtdIns and PtdSer lipid fractions, or 17:0 heptadecaenoic acid to quantify brain UFAs. Toluene (0.2 ml) was added to each tube. The UFAs were extracted from the scraped silica using 2:1 chloroform/methanol and 1.5 ml of 0.1 M KCl, dried and derivitized as described below. […]

[3] = mouse, intravenously injected, from ref (2); cited from earlier work
[4] = mouse brain, 5-min i.v. infusion, mean±SD, n=3

Row | SMILES | FAA concentration in plasma over time ([1]; 0.3 or 1.6 nmol, FIG. 1) | plasma area under the curve ([1]; high dose (1.6 nmol)) | plasma area under the curve ([1]; low dose (0.3 nmol)) | FAA concentration within brain phospholipids (rank order) ([2]; both doses, end of 5-min infusion, FIG. 2-A) | FAA detected in brain unesterified fatty acid, triglyceride and cholesteryl ester fractions ([2]; end of 5-min infusion, mouse brain) | incorporation coefficient k*, high versus low dose ([2]; mouse brain lipids, FIG. 3) | k* values, brain ChoGpl [2, 4] | k* values, brain EtnGpl [2, 4] | k* values, brain PtdIns [2, 4] | k* values, brain PtdSer [2, 4] | k* values, brain Total lipid [2, 4] | distribution of FAA in each phospholipid fraction, percentage of FAA in total phospholipid (rank order) ([2]; mouse brain, FIG. 2-B, p<0.01) | Published k* values, brain ChoGpl [3] | Published k* values, brain EtnGpl [3] | Published k* values, brain PtdIns [3] | Published k* values, brain PtdSer [3] | Published k* values, brain Total lipid [3]
1 | O=C(O)CCC/C=C\C/C=C\C/C=C\C/C=C\CCCCCF [FAA, 20-Fluoroarachidonic acid] | increased over time in a dose-dependent manner | 0.236 ± 0.0189 µM·h | 0.0297 ± 0.0217 µM·h | highest in PtdIns and ChoGpl, followed by EtnGpl and PtdSer | < 0.01 nmol/g | lower for the high infusion dose than the low dose | 6.8 ± 2.6 ml/s/g × 10^4 | 2.8 ± 0.4 ml/s/g × 10^4 | 8.6 ± 1.3 ml/s/g × 10^4 | 0.4 ± 0.1 ml/s/g × 10^4 | 15.0 ± 2.3 ml/s/g × 10^4 | highest in ChoGlp, followed by PtdIns, EtnGlp and PtdSer |  |  |  |  | 
2 | CCCCC/C=C\C/C=C\C/C=C\C/C=C\CCCC(=O)O [[1-^14C]AA] |  |  |  |  |  |  |  |  |  |  |  |  | 5.9 ± 1.4 ml/s/g × 10^4 | 5.7 ± 1.0 ml/s/g × 10^4 | 6.8 ± 0.8 ml/s/g × 10^4 | 1.8 ± 0.5 ml/s/g × 10^4 | 22.6 ± 1.3 ml/s/g × 10^4
